Converted amounts (≈) assume the structure as drawn.

The subject of test [1] is Salmonella typhimurium. Nature of the test: Antimicrobial activity against Salmonella typhimurium ATCC 19430 incubated for 18 hrs by agar dilution method. The test is classed as functional, Salmonella enterica subsp. enterica serovar Typhimurium. To be noted: Salmonella enterica, ATCC 19430, 18 h. A general note: Agar dilution tests growth on a series of plates holding different concentrations.

For test [2], the system named is Staphylococcus aureus. Nature of the test: Antimicrobial activity against Staphylococcus aureus ATCC 25923 incubated for 18 hrs by agar dilution method. Format: functional. The note with it: ATCC 25923, 18 h.
Test [3] relates to Streptococcus pyogenes. Nature of the test: Antimicrobial activity against Streptococcus pyogenes ATCC 19615 incubated for 18 hrs by agar dilution method. Format: functional. To be noted: ATCC 19615, 18 h.
Test [4] concerns Pseudomonas aeruginosa. Nature of the test: Antimicrobial activity against Pseudomonas aeruginosa ATCC 27853 incubated for 18 hrs by agar dilution method. The test is classed as functional. The note with it: ATCC 27853, 18 h.

Turning to `CCn1cc(C(=O)NCC(=O)N2CCN(c3cc4c(cc3F)c(=O)c(C(=O)O)cn4C3CC3)CC2)c(=O)c2ccc(C)nc21`, it took 64.7 µM (≈ 39 µg/mL) to inhibit growth in test [1] (MIC).

Turning to `CCn1cc(C(=O)N[C@@H](Cc2ccccc2)C(=O)N2CCN(c3cc4c(cc3F)c(=O)c(C(=O)O)cn4C3CC3)CC2)c(=O)c2ccc(C)nc21`, the MIC in test [2], in test [3], in test [1] and in test [4] was 1800 µM (≈ 1250 µg/mL) each time.

For the compound `CCn1cc(C(=O)O)c(=O)c2ccc(C)nc21` [NALIDIXIC ACID], the minimal inhibitory concentration (MIC) in test [2] was 3770 µM (≈ 876 µg/mL); in test [3], 3770 µM (≈ 876 µg/mL); in test [1], 7.2 µM (≈ 1.67 µg/mL); in test [4] it was 14.5 µM (≈ 3.37 µg/mL).

On to `CCn1cc(C(=O)NCCC(=O)N2CCN(c3cc4c(cc3F)c(=O)c(C(=O)O)cn4C3CC3)CC2)c(=O)c2cc3c(cc21)OCO3`, for which the minimum inhibitory concentration (MIC) stood at 1940 µM (≈ 1250 µg/mL) in test [2], 1940 µM (≈ 1250 µg/mL) in test [3], 7.4 µM (≈ 4.78 µg/mL) in test [1] and 1940 µM (≈ 1250 µg/mL) in test [4].

On to `CCn1cc(C(=O)O)c(=O)c2cc(F)c(N3CCN(C(=O)[C@H](Cc4c[nH]c5ccccc45)NC(=O)c4cn(CC)c5nc(C)ccc5c4=O)CC3)cc21`, for which the MIC in test [2] worked out at 1740 µM (≈ 1250 µg/mL); in test [3] it was 1740 µM (≈ 1250 µg/mL); in test [1], 868 µM (≈ 625 µg/mL); in test [4], 1740 µM (≈ 1250 µg/mL).

Take `CCn1cc(C(=O)O)c(=O)c2cc(F)c(N3CCN(C(=O)[C@H](Cc4c[nH]c5ccccc45)NC(=O)c4cn(CC)c5cc6c(cc5c4=O)OCO6)CC3)cc21`: the MIC in test [2], in test [3], in test [1] and in test [4] was 1670 µM (≈ 1250 µg/mL) each time.

Regarding `CCn1cc(C(=O)O)c(=O)c2cc(F)c(N3CCN(C(=O)CCCNC(=O)c4cn(CC)c5cc6c(cc5c4=O)OCO6)CC3)cc21`, the MIC in test [2] amounted to 482 µM (≈ 312 µg/mL); in test [3], 965 µM (≈ 625 µg/mL).

In the case of `CCn1cc(C(=O)O)c(=O)c2cc(F)c(N3CCN(C(=O)CCNC(=O)c4cn(CC)c5nc(C)ccc5c4=O)CC3)cc21`, the MIC in test [2], in test [3], in test [1] and in test [4] was 2070 µM (≈ 1250 µg/mL) in each case.

Regarding `O=C(O)c1cn(C2CC2)c2cc(N3CCNCC3)c(F)cc2c1=O` [CIPROFLOXACIN], the minimum inhibitory concentration (MIC) came out at 74.6 µM (≈ 24.7 µg/mL) in test [2], 2390 µM (≈ 793 µg/mL) in test [3], 9.2 µM (≈ 3.05 µg/mL) in test [1] and 74.6 µM (≈ 24.7 µg/mL) in test [4].

As to `CCn1cc(C(=O)N[C@@H](Cc2ccccc2)C(=O)N2CCN(c3cc4c(cc3F)c(=O)c(C(=O)O)cn4C3CC3)CC2)c(=O)c2cc3c(cc21)OCO3`, the MIC amounted to 1730 µM (≈ 1250 µg/mL) in test [2], 1730 µM (≈ 1250 µg/mL) in test [3], 433 µM (≈ 313 µg/mL) in test [1] and 1730 µM (≈ 1250 µg/mL) in test [4].

As to `CCn1cc(C(=O)O)c(=O)c2cc(F)c(N3CCN(C(=O)CCNC(=O)c4cn(CC)c5cc6c(cc5c4=O)OCO6)CC3)cc21`, the MIC in test [2] worked out at 30.8 µM (≈ 19.5 µg/mL); in test [3] it was 247 µM (≈ 156 µg/mL); in test [1] it was 61.6 µM (≈ 39 µg/mL); in test [4], 493 µM (≈ 313 µg/mL).

For `CCn1cc(C(=O)N[C@@H](Cc2c[nH]c3ccccc23)C(=O)N2CCN(c3cc4c(cc3F)c(=O)c(C(=O)O)cn4C3CC3)CC2)c(=O)c2ccc(C)nc21`, the MIC in test [2] was 3.3 µM (≈ 2.41 µg/mL); in test [3], 854 µM (≈ 625 µg/mL); in test [1], 427 µM (≈ 312 µg/mL); in test [4], 1710 µM (≈ 1250 µg/mL).

With `CCn1cc(C(=O)NCCC(=O)N2CCN(c3cc4c(cc3F)c(=O)c(C(=O)O)cn4C3CC3)CC2)c(=O)c2ccc(C)nc21`, the MIC in test [2] is 1010 µM (≈ 625 µg/mL); in test [3] it was 7.8 µM (≈ 4.81 µg/mL); in test [1], 15.7 µM (≈ 9.68 µg/mL); in test [4], 2030 µM (≈ 1250 µg/mL).

In the case of `CC[C@H](C)[C@H](NC(=O)c1cn(CC)c2cc3c(cc2c1=O)OCO3)C(=O)N1CCN(c2cc3c(cc2F)c(=O)c(C(=O)O)cn3CC)CC1`, the MIC amounted to 1850 µM (≈ 1250 µg/mL) in test [2], 1850 µM (≈ 1250 µg/mL) in test [3], 1850 µM (≈ 1250 µg/mL) in test [1] and 462 µM (≈ 313 µg/mL) in test [4].

Turning to `CC[C@H](C)[C@H](NC(=O)c1cn(CC)c2nc(C)ccc2c1=O)C(=O)N1CCN(c2cc3c(cc2F)c(=O)c(C(=O)O)cn3CC)CC1`, the MIC in test [2], in test [3], in test [1] and in test [4] was 1930 µM (≈ 1250 µg/mL) in each case.

`CCn1cc(C(=O)O)c(=O)c2cc(F)c(N3CCN(C(=O)CNC(=O)c4cn(CC)c5cc6c(cc5c4=O)OCO6)CC3)cc21` returned an MIC in test [1] of 2020 µM (≈ 1250 µg/mL). In other words, the millimolar range.

On to `CC[C@H](C)[C@H](NC(=O)c1cn(CC)c2cc3c(cc2c1=O)OCO3)C(=O)N1CCN(c2cc3c(cc2F)c(=O)c(C(=O)O)cn3C2CC2)CC1`, for which the MIC in test [2] stood at 454 µM (≈ 313 µg/mL); in test [3] it was 1820 µM (≈ 1250 µg/mL); in test [1], 909 µM (≈ 625 µg/mL); in test [4], 1820 µM (≈ 1250 µg/mL).

Regarding `CCn1cc(C(=O)O)c(=O)c2cc3c(cc21)OCO3` [OXOLINIC ACID], the minimum inhibitory concentration (MIC) in test [2] is 3910 µM (≈ 1020 µg/mL); in test [3], 1960 µM (≈ 511 µg/mL); in test [1], 7.5 µM (≈ 1.96 µg/mL); in test [4], 15 µM (≈ 3.92 µg/mL).

As to `CCn1cc(C(=O)O)c(=O)c2cc(F)c(N3CCN(C(=O)[C@H](Cc4ccccc4)NC(=O)c4cn(CC)c5nc(C)ccc5c4=O)CC3)cc21`, the minimal inhibitory concentration (MIC) in test [2] was found to be 28.6 µM (≈ 19.5 µg/mL); in test [3] it was 459 µM (≈ 313 µg/mL); in test [1], 115 µM (≈ 78.1 µg/mL); in test [4], 918 µM (≈ 625 µg/mL).

For `CC[C@H](C)[C@H](NC(=O)c1cn(CC)c2nc(C)ccc2c1=O)C(=O)N1CCN(c2cc3c(cc2F)c(=O)c(C(=O)O)cn3C2CC2)CC1`, the MIC in test [2], in test [3], in test [1] and in test [4] was 1900 µM (≈ 1250 µg/mL) in each case.

As for `CCn1cc(C(=O)O)c(=O)c2cc(F)c(N3CCN(C(=O)[C@H](Cc4ccccc4)NC(=O)c4cn(CC)c5cc6c(cc5c4=O)OCO6)CC3)cc21`, the MIC in test [2], in test [3], in test [1] and in test [4] was 1760 µM (≈ 1250 µg/mL) in each case.

`CCn1cc(C(=O)N[C@@H](Cc2c[nH]c3ccccc23)C(=O)N2CCN(c3cc4c(cc3F)c(=O)c(C(=O)O)cn4C3CC3)CC2)c(=O)c2cc3c(cc21)OCO3`: the MIC was determined as 51.3 µM (≈ 39 µg/mL) in test [2], 411 µM (≈ 313 µg/mL) in test [3], 25.6 µM (≈ 19.5 µg/mL) in test [1] and 411 µM (≈ 313 µg/mL) in test [4].

Compound `CCn1cc(C(=O)NCC(=O)N2CCN(c3cc4c(cc3F)c(=O)c(C(=O)O)cn4C3CC3)CC2)c(=O)c2cc3c(cc21)OCO3` registered an MIC in test [1] of 7.6 µM (≈ 4.8 µg/mL).

For the compound `CCn1cc(C(=O)NCCCC(=O)N2CCN(c3cc4c(cc3F)c(=O)c(C(=O)O)cn4C3CC3)CC2)c(=O)c2cc3c(cc21)OCO3`, the MIC in test [2] was 1890 µM (≈ 1250 µg/mL); in test [3], 1890 µM (≈ 1250 µg/mL); in test [1], 59.1 µM (≈ 39 µg/mL); in test [4] it was 1890 µM (≈ 1250 µg/mL).

Consider `CCn1cc(C(=O)O)c(=O)c2cc(F)c(N3CCN(C(=O)CCCNC(=O)c4cn(CC)c5nc(C)ccc5c4=O)CC3)cc21`, for which the MIC stood at 505 µM (≈ 312 µg/mL) in test [2], 1010 µM (≈ 625 µg/mL) in test [3], 505 µM (≈ 312 µg/mL) in test [1] and 505 µM (≈ 312 µg/mL) in test [4].

With `CCn1cc(C(=O)O)c(=O)c2cc(F)c(N3CCN(C(=O)CNC(=O)c4cn(CC)c5nc(C)ccc5c4=O)CC3)cc21`, the results for the minimal inhibitory concentration (MIC) in test [2] and in test [1] were 33 µM (≈ 19.5 µg/mL) and 2120 µM (≈ 1250 µg/mL), respectively.

Consider `CCn1cc(C(=O)O)c(=O)c2cc(F)c(N3CCNCC3)cc21` [NORFLOXACIN], for which the MIC in test [2] worked out at 1350 µM (≈ 430 µg/mL); in test [3], 1350 µM (≈ 430 µg/mL); in test [1], 10.3 µM (≈ 3.29 µg/mL); in test [4] it was 336 µM (≈ 107 µg/mL).

One may read the MIC as the smallest concentration in the dilution series that meets the test's criterion for growth inhibition. Low values mean inhibition by little substance, high ones a need for much substance.
